Experimental data taken from patent US11254688B2 (Boehringer Ingelheim International GmbH, priority 2018, dated 2022).

Target: T1, hGOAT (Homo sapiens, UniProt Q96T53)
T1 construct: expressed in transfected cells; host or cells: HEK293 (Hek293 hGOAT/PPGhrl Clone #1B8)
T1 sequence (Q96T53 1-435): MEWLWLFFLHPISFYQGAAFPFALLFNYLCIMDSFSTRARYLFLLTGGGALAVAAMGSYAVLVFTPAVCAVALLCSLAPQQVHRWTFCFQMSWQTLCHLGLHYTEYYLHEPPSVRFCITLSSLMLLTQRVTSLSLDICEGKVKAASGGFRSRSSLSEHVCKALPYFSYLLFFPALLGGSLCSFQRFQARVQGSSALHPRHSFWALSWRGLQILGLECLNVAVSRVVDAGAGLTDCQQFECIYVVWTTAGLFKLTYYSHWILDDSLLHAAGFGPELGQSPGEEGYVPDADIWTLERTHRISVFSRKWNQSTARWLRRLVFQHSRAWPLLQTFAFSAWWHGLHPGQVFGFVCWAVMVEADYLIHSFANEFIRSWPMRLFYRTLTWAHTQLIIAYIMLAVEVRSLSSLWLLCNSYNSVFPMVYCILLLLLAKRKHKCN
Experiment: Determination of hGOAT activity in HEK293 cells after incubation with test compound (acyl-ghrelin ELISA)
Type: cell-based
Conditions: HEK293 cells stably transfected with preproghrelin and human GOAT; octanoate-BSA 100 μM; 5 hours incubation; acyl-ghrelin in medium by ELISA; 8 compound concentrations

| IC50 | Structure (SMILES) |
| --- | --- |
| 7.36 nM | Cc1nc2nonc2c(N)c1Cc1ccc(Cl)nc1C(F)(F)F [Compound 25.3, 6-{[6-Chloro-2-(trifluoromethyl)pyridin-3-yl]methyl}-5-methyl-[1,2,5]oxadiazolo[3,4-b]pyridin-7-amine] |
| 1.35 nM | Cc1nc2nonc2c(N)c1Cc1cnc(Cl)c(C(F)(F)F)c1 [Compound 25.4, 6-{[6-chloro-5-(trifluoromethyl)pyridin-3-yl]methyl}-5-methyl-[1,2,5]oxadiazolo[3,4-b]pyridin-7-amine] |
